Assay results from patent publication US4124369A, “Combating fungi and controlling plant growth with 1-amido-1-azolyl-2-hydroxy- or -keto-alkanes” (Bayer Aktiengesellschaft, priority 1976, dated 1978).

Experiments:
[1] = tested on: Erysiphe graminis var. hordei; assay: Shoot treatment test/powdery mildew of cereals/protective; format: in vivo, Erysiphe graminis var. hordei on barley (Amsel variety); settings: protective, 6 days, 0% = no infection
Procedure: shoot treatment test/powdery mildew of cereals/protective (leaf-destructivemycosis)
To produce a suitable preparation of active compound, 0.25 part by weight of active compound was taken up in 25 parts by weight of dimethylformamide and 0.06 part by weight of emulsifier alkylarylpolyglycol ether and then 975 parts by weight of water were added. The concentration was diluted with water to the desired final concentration of the spray liquor.
To test for protective activity, single-leaved young barley plants of the Amsel variety were sprayed with the preparation of active compound until dew-moist. After drying, the barley plants were dusted with spores of Erysiphe graminis var. hordei.
After 6 days' dwell time of the plants at a temperature of 21°-22° C. and 80-90% atmospheric humidity the occurrence of mildew pustules on the plants was evaluated. The degree of infection was expressed as a percentage of the infection of the untreated control plants. 0% denoted no infection and 100% denoted that same degree of infection as in the case of the untreated control.
The active compounds, the concentrations of the active compounds in the spray liquor and degrees of infection can be seen from the table which follows: […]

[2] = tested on: Erysiphe graminis var. hordei; assay: Powdery mildew of barley test/systemic (seed treatment); format: in vivo, Erysiphe graminis var. hordei on barley; settings: 25% by weight active compound in the dressing, 10 g dressing/kg of seed, systemic, 0% = no infection
Procedure: powdery mildew of barley (Erysiphe graminis var.hordei)/systemic (fungal disease of cereal shoots) The active compounds were used as pulverulent seed treatment agents. They were prepared by extending the particular active compound with a mixture of equal parts by weight of talc and kieselguhr to give a finely pulverulent mixture of the desired concentration of active compound. For the treatment of seed, barley seed was shaken with the extended active compound in a closed glass bottle. The seed was sown at the rate of 3 × 12 grains in flowerpots, 2 cm deep in a mixture of one part by volume of Fruhstorfer standard soil and one part by volume of quartz sand. The germination and emergence took place under favorable conditions in a greenhouse. 7 days after sowing, when the barley plants have developed their first leaf, they were dusted with fresh spores of Erysiphe graminis var. hordei and grown on at 21°-22° C. and 80-90% relative atmospheric humidity and 16 hours' exposure to light. The typical mildew pustules formed on the leaves over the course of 6 days. The degree of infection was expressed as a percentage of the infection of the untreated control plants. Thus, 0% denoted no infection and 100% denoted the same degree of infection as in the case of the untreated control. […] The active compounds and concentrations of active compound in the seed treatment agent, as well as the amount used of the latter, and the percentage infection with mildew can be seen from the table which follows: […]

[3] = tested on: Fusicladium dendriticum; assay: Fusicladium test (apple)/protective; format: in vivo, Fusicladium dendriticum (apple scab) on apple seedlings; settings: 0.0025% active compound; protective; 15 days after inoculation; 0% = no infection, 100% = completely infected
Procedure: fusicladium test (apple)/Protective Solvent: 4.7 parts by weight of acetone Emulsifier: 0.3 part by weight of alkylaryl polyglycol ether Water: 95 parts by weight. The amount of active compound required for the desired concentration of the active compound in the spray liquid was mixed with the stated amount of solvent, and the concentrate was diluted with the stated amount of water which contained with stated additions. Young apple seedlings in the 4-6 leaved stage were sprayed with the spray liquid until dripping wet. The plants remained in a greenhouse for 24 hours at 20° C. and at a relative atmospheric humidity of 70%. They were then inoculated with an aqueous conidium suspension of the apple scab causative organism (Fusicladium dendriticum) and incubated for 18 hours in a humidity chamber at 18°-20° C. and at a relative atmospheric humidity of 100%. The plants were then brought into a greenhouse for 14 days. 15 days after inoculation, the infection of the seedlings was determined. The ratings obtained were converted to percent infection. 0% meant no infection; 100% meant that the plants were completely infected. The active compounds, the concentrations of the active compounds and the results can be seen from the following table: […]

[4] = tested on: fungi; settings: cited from earlier work
[5] = tested on: Podosphaera leucotricha; assay: Podosphaera test (apple)/protective; format: in vivo; settings: 0.00125% active compound; protective; 10 days after inoculation; 0% = no infection, 100% = completely infected
Procedure: podosphaera test (apple)/protective Solvent: 4.7 parts by weight of acetone Emulsifier: 0.3 part by weight of alkylaryl polyglycol ether Water: 95 parts by weight The amount of active compound required for the desired concentration of the active compound in the spray liquid was mixed with the stated amount of solvent, and the concentrate was diluted with the stated amount of water which contained the stated additions. Young apple seedlings in the 4-6 leaved stage were sprayed with the spray liquid until dripping wet. The plants remained in a greenhouse for 24 hours at 20° C. and at a relative atmospheric humidity of 70%. They were then inoculated by dusting with conidia of the apple powdery mildew causative organism (Podosphaera leucotricha) and placed in a greenhouse at a temperature of 21°-23° C. and at a relative atmospheric humidity of about 70%. 10 days after the inoculation, the infection of the seedlings was determined. The ratings obtained were converted to percent infection. 0% meant no infection: 100% meant that the plants were completely infected. The active compounds, the concentrations of the active compounds and the results can be seen from the following table: […]

[6] = tested on: soya bean plants; assay: Influence on growth/soya beans; format: in vivo; settings: 0.05%; footnote *
Excerpt: influence on growth/soya beans
(§1) Solvent: 10 parts by weight of methanol
(§2) Emulsifier: 2 parts by weight of polyoxyethylene sorbitan monolaurate
To prepare a suitable preparation of active compound, 1 part by weight of active compound was mixed with the stated amounts of solvent and emulsifier and the mixture was made up to the desired concentration with water.
Young soya bean plants, in the stage in which the first secondary leaves had unfolded, were sprayed with the preparation of active compound until dripping wet. After 3 weeks, the additional growth was measured and the inhibition of growth in % of the additional growth of the control plants was calculated. 0% denoted growth corresponding to that of the control plants. Positive values characterized promotion of growth compared to the control plants while negative values corrrespondingly indicated an inhibition of growth.
The active compounds, concentrations of the active compounds and results can be seen from the table which follows: […]

[7] = tested on: barley plants; assay: Inhibition of growth/barley; format: in vivo; settings: 0.05%; 100% = growth stopped, 0% = growth of untreated control
Excerpt: Inhibition of growth/barley
as §1, §2
To prepare a suitable preparation of active compound, 1 part by weight of active compound was mixed with the stated amount of solvent and emulsifier and the mixture was made up to the desired concentration with water.
Young barley plants, in the 2-leaf stage, were sprayed with the preparation of active compound until dripping wet. After the untreated control plants had reached a growth height of about 60 cm, the additional growth of all the plants was measured and the inhibition of growth in % of the additional growth of the control plants was calculated. 100% meant that growth had stopped and 0% denoted a growth corresponding to that of the untreated control plants.
The active compounds, concentrations of the active compounds and results can be seen from the table which follows.

[8] = tested on: tobacco plants; assay: Inhibition of the growth of side shoots of tobacco; format: in vivo; settings: 0.2%; after 3 weeks; 100% = absence of side shoots
Excerpt: inhibition of the growth of side shoots of tobacco
as §1
Emulsifier: 2 parts by weight of polyoxyethylene-sorbitan monolaurate
To prepare a suitable preparation of active compound, 1 parts by weight of active compound was mixed with the stated amounts of solvent and emulsifier and the mixture was made up to the desired concentration with water.
The shoot tips of about 50 cm high tobacco plants were broken off. On the following day, the plants were sprayed with the preparations of active compound until dripping wet. After 3 weeks, the side shoots which had formed during this time were broken off. All the side shoots of one treatment were weighed. The weight of the side shoots of the treated plants was compared with the weight of the side shoots of the untreated control plant. 100% inhibition denoted the absence of side shoots and 0% denoted a growth of side shoots which correspond to that of the control plants.
The active compounds, the concentrations of the active compounds and results can be seen from the table which follows: […]

[9] = 0.01% by weight active compound in the spray liquor
[10] = 0.025% by weight active compound in the spray liquor

Row | Compound | Infection in % of the untreated control [1, 10] [%] | Infection in % of the untreated control [2] [%] | other results
1 | CC(C)(C)C(=O)C(NC(=O)COc1ccccc1)n1cncn1 (centres unmarked) |  |  | Infection in % of the untreated control [1, 9]: 32.5%
2 | CC(C)(C)C(=O)C(NC(=O)c1ccccc1)n1ccnc1 (centres unmarked) | 12.5 |  | 
3 | CC(C)(C)C(=O)C(NC(=O)c1cc(Cl)ccc1Cl)n1cncn1 (centres unmarked) | 50.0 |  | 
4 | CC(C)(C)C(=O)C(NC(=O)c1cc(Cl)ccc1Cl)n1ccnc1 (centres unmarked) | 21.3 |  | 
5 | CC(C)(C)C(=O)NC(C(=O)C(C)(C)C)n1ccnc1 (centres unmarked) | 30.0 |  | 
6 | CC(C)(C)C(=O)C(NC(=O)c1ccccc1Cl)n1ccnc1 (centres unmarked) |  | 55.0 | 
7 | CC(C)(C)C(=O)C(NC(=O)Cc1ccccc1)n1ccnc1 (centres unmarked) |  | 50.0 | 
8 | CC(C)(C)C(=O)NC(C(=O)C(C)(C)C)n1cncn1 (centres unmarked) |  | 25.0 | 
9 | c1ccc(C(c2ccccc2)(c2ccccc2)n2cncn2)cc1 [A, triphenyl-1,2,4-triazol-1-yl-methane, reference compound] |  |  | Infection in % at an active compound concentration of 0.0025% [3]: 83%; fungicidal activity (prior art) ([4]; German Offenlegungsschrift 1,795,249): good fungicidal activity; action at low amounts and low concentrations (prior art) ([4]; especially low amounts and low concentrations): not always entirely satisfactory; Infection in % at an active compound concentration of 0.00125% [5]: 85%
10 | CC(C)(C)C(=O)C(NC(=O)c1ccc(Cl)cc1)n1cncn1 (centres unmarked) [Compound 1, 1-(p-chlorobenzamido)-3,3-dimethyl-1-(1,2,4-triazol-1-yl) butan-2-one] |  |  | Infection in % at an active compound concentration of 0.0025% [3]: 50%; Infection in % at an active compound concentration of 0.00125% [5]: 50%
11 | c1ccc(C(c2ccccc2)(c2ccccc2)n2cncn2)cc1 [drawing 13, reference compound] | 100.0 |  | Infection in % of the untreated control [1, 9]: 100.0%
12 | CC(C)(C)C(=O)C(NC(=O)c1ccc(Cl)cc1)n1cncn1 (centres unmarked) [drawing 14] |  |  | Infection in % of the untreated control [1, 9]: 0.0%
13 | CC(C)(C)C(=O)C(NC(=O)c1ccccc1Cl)n1cncn1 (centres unmarked) [drawing 16] | 50.0 |  | 
14 | CC(C)(C)C(=O)C(NC(=O)c1ccccc1)n1cncn1 (centres unmarked) [drawing 18] | 500 |  | 
15 | CC(C)(C)C(O)C(NC(=O)c1ccccc1Cl)n1ccnc1 (centres unmarked) [drawing 19] | 28.8 |  | 
16 | CC(C)(C)C(=O)C(NC(=O)c1cccc(Cl)c1)n1ccnc1 (centres unmarked) [drawing 20] | 28.8 |  | 
17 | CC(C)(C)C(O)C(NC(=O)c1cc(Cl)ccc1Cl)n1cncn1 (centres unmarked) [drawing 23] | 40.0 |  | 
18 | CC(C)(C)C(=O)C(NC(=O)Cc1ccccc1)n1cncn1 (centres unmarked) [drawing 24] | 40.0 |  | 
19 | CC(C)(C)C(O)C(NC(=O)c1ccccc1)n1cncn1 (centres unmarked) [drawing 25] | 40.0 |  | 
20 | c1ccc(C(c2ccccc2)(c2ccccc2)n2cncn2)cc1 [drawing 27, reference compound] |  | 88.8 | 
21 | CC(C)(C)C(=O)C(NC(=O)c1ccccc1Cl)n1cncn1 (centres unmarked) [drawing 29] |  | 0.0 | 
22 | CC(C)(C)C(=O)C(NC(=O)c1ccccc1)n1cncn1 (centres unmarked) [drawing 30] |  | 0.0 | 
23 | CC(C)(C)C(O)C(NC(=O)c1ccccc1Cl)n1ccnc1 (centres unmarked) [drawing 31] |  | 58.8 | 
24 | CC(C)(C)C(=O)C(NC(=O)c1cccc(Cl)c1)n1ccnc1 (centres unmarked) [drawing 32] |  | 50.0 | 
25 | CC(C)(C)C(O)C(NC(=O)c1cc(Cl)ccc1Cl)n1cncn1 (centres unmarked) [drawing 33] |  | 25.0 | 
26 | CC(C)(C)C(=O)C(NC(=O)Cc1ccccc1)n1cncn1 (centres unmarked) [drawing 34] |  | 0.0 | 
27 | CC(C)(C)C(O)C(NC(=O)c1ccccc1)n1cncn1 (centres unmarked) [drawing 35] |  | 17.5 | 
28 | CC(C)(C)C(=O)C(NC(=O)COc1ccc(Cl)cc1Cl)n1ccnc1 (centres unmarked) [drawing 38] |  |  | Influence on growth, note on leaves [6]: dark green leaves
29 | CC(C)(C)C(=O)C(NC(=O)COc1ccc(Cl)cc1Cl)n1ccnc1 (centres unmarked) [drawing 41] |  |  | Inhibition of growth in % [7]: 45%
30 | CC(C)(C)C(=O)C(NC(=O)COc1ccc(Cl)cc1Cl)n1ccnc1 (centres unmarked) [drawing 42] |  |  | Inhibition in % (growth of side shoots) [8]: 97%
